Data from ChEMBL document CHEMBL2163214, “Design, synthesis, calorimetry, and crystallographic analysis of 2-alkylaminoethyl-1,1-bisphosphonates as inhibitors of Trypanosoma cruzi farnesyl diphosphate synthase” (J Med Chem, 2012).

Experiment: Binding affinity to Trypanosoma cruzi farnesyl diphosphate synthase at 250 uM at 28 degC by isothermal titration calorimetry

Kd [nM]	SMILES
400	CCCCCCNCC(P(=O)(O)O)P(=O)(O)O
58.8	CCCCCCCNCC(P(=O)(O)O)P(=O)(O)O
1030	CCCCCNCC(P(=O)(O)O)P(=O)(O)O

SMILES	Kd [nM]
CCCNCC(P(=O)(O)O)P(=O)(O)O	25
